In patent publication US12655160B2, “KRAS G12D inhibitors” (Mirati Therapeutics, Inc., priority 2020, dated 2026) one finds Kd and IC50 data, which are given here for one molecule.

The term Kd denotes the free concentration of one partner at which half of the binding sites on the other are occupied at equilibrium, for simple one-to-one binding. High values mean weaker binding, low ones tighter binding. What is called IC50 is the concentration at which inhibition is half-maximal.

Test [1] deals with T1, KRas G12D (Homo sapiens, UniProt P01116, G12D). The test can be described thus: KRas G12D Surface Plasmon Resonance (SPR) Binding Assay. The settings on record: Biacore T200, Biotinylated Avidin-tagged KRAS protein on SA chip, 20 C, 1:1 binding model. Further details: Avidin-tag (so in the source). The method, then: This Example illustrates that exemplary compounds of the present invention bind to KRas G12D as measured by surface plasmon resonance (SPR). Briefly, 1 L of 1.05×HBS-Mg buffer (262.5 mM BioUltra Hepes, pH 7.5, 157.5 mM NaCl, 105 mM MgCl2, 0.525 mM TCEP, 0.0305% Brij-35) was prepared and filter sterilized using a 0.22 μm bottle top filter. Approximately 50 mL of 1.05×HBS-Mg buffer was removed and saved for future dilutions. A 50 mL aliquot of DMSO (Sigma Aldrich DMSO Lot. #SHBK2079) was added and continued to stir for 10 minutes, creating the final 1.0×HBS-Mg buffer (250 mM BioUltra Hepes pH 7.5, 150 mM NaCl, 100 mM MgCl2, 0.5 mM TCEP, 0.03% Brij-35). Biacore T200 instrument was primed using 1.0×HBS-Mg buffer before docking a GE Streptavidin (SA) chip and then primed two additional times prior to beginning the immobilization step. All immobilized protein mixtures were created using 3-5 mg/mL Biotinylated Avidin-tagged KRAS protein using the following immobilization settings: SA chip type, 1 flow cells per cycle, 720 second contact time, and 5 μL/min flow rate. Normalization of the detector was also performed during the immobilization step using the GE BiaNormalize solution. All compounds were diluted to 10 mM in 100% DMSO prior to being diluted 20× in 1.05× buffer. Another 10λ dilution was created using 1.0× buffer prior to performing a series of 3× dilutions to create a compound concentration curve using the following assay settings: 20 C analysis temperature, General Settings=10 Hz data collection rate and multi-detection; Assay Steps=all set to LMW kinetics; Cycle Types=LMW kinetics (60 s contact time, 120 s dissociation time, 100 μL/min flow rate, extra wash after injection with 50% DMSO, flow path 1,2,3,4); Flow path detection=2-1, 4-3). Data evaluation was performed using the Biacore T200 Evaluation software and data fit to 1:1 binding model.
Target sequence in this assay (P01116 1-188 isoform P01116-2 G12D): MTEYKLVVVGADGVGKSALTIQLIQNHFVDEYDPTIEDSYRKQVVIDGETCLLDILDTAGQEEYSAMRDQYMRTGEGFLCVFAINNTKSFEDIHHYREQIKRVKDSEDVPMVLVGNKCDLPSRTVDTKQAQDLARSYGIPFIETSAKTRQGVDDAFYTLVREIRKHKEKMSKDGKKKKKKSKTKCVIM

The target in test [2] is T1, KRas G12D. Briefly: KRas G12D Binding Assay (TR-FRET displacement of labeled tracer). Further details: corresponding to amino acids 1:169, produced at Array BioPharma Inc; biotin (biotinylated). As to conditions: TR-FRET displacement of Cy5 labelled tracer, Biotinylated GDP-loaded KRAS G12D (amino acids 1:169), 60 minute incubation at 22° C. Summed up:
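Biotinylated GDP-loaded KRAS G12D (aa 1:169) was incubated with Cy5 tracer, Eu-streptavidin and compound (2% DMSO) in HEPES pH 7.5, MgCl2, Tween-20, DTT, 60 min at 22° C. TR-FRET ratio gave POC; IC50 from 4-parameter fit at 50 POC.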
A general note: TR-FRET usually uses a lanthanide donor and a delayed reading to cut background.
Target sequence in this assay (P01116 1-169 isoform P01116-2 G12D): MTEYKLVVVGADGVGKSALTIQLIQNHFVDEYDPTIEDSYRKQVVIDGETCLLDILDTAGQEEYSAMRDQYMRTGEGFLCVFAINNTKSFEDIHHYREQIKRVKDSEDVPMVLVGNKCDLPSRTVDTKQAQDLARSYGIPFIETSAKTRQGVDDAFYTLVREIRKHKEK

Test [3] deals with KRas G12D-mediated Phosphorylation of ERK. The test can be described thus: Inhibition of KRas G12D-mediated Phosphorylation of ERK in AGS cells. It is filed as cell-based. The settings on record: Homo sapiens, AGS, 3 h. The method, then: AGS cells (ATCC CRL-1739) expressing G12D were grown in DMEM medium supplemented with 10% fetal bovine serum, 10 mM HEPES, and Penicillin/Streptomycin. Cells were plated in tissue culture treated 96 well plates at a density of 40,000 cells/well and allowed to attach for 12-14 hours. Diluted compounds were then added in a final concentration of 0.5% DMSO. After 3 hours, the medium was removed, 150 μl of 4.0% formaldehyde was added and the plates incubated at room temperature for 20 minutes. The plates were washed with PBS, and permeabilized with 150 μL of ice cold 100% methanol for 10 minutes. Non-specific antibody binding to the plates was blocked using 100 μL Licor blocking buffer (Li-Cor Biotechnology, Lincoln NE) for 1 hour at room temperature.
The amount of phospho-ERK was determined using an antibody specific for the phosphorylated form of ERK and compared to the amount of GAPDH. Primary antibodies used for the detection were added as follows: Phospho-ERK(Cell Signaling cs-9101) diluted 1:500 and GAPDH (Millipore MAB374) diluted 1:5000 in Licor block+0.05% Tween 20. The plates were incubated for 2 hours at room temperature. The plates were washed with PBS+0.05% Tween 20.
Secondary antibodies used to visualize primary antibodies were added as follows: Anti-rabbit-680 diluted 1:1000 and Anti-mouse-800 diluted 1:1000 both in Licor block+0.05% Tween20, and were incubated for 1 hour at room temperature. The plates were washed with PBS+0.05% Tween 20. A 100 μl aliquot of PBS was added to each well and the plates were read on a Li-Cor Odyssey CLX plate reader.
The phospho-ERK(Thr202/Tyr204 signal was normalized to the GAPDH signal for each well and percent of DMSO control values were calculated. IC50 values were generated using a 4-parameter fit of the dose response curve

As to `C#Cc1cccc2cc(O)cc(-c3ncc4c(NCC5(N(C)C)CCC5)nc(OC[C@@]56CCCN5C[C@H](F)C6)nc4c3F)c12` [Example 52, 4-(4-(((1-(dimethylamino)cyclobutyl)methyl)amino)-8-fluoro-2-(((2R,7aS)-2-fluorotetrahydro-1H-pyrrolizin-7a(5H)-yl)methoxy)pyrido[4,3-d]pyrimidin-7-yl)-5-ethynylnaphthalen-2-ol], at KRas G12D [1], binding was characterised by a dissociation constant (Kd) of 0.04 nM. In addition, the 50% inhibitory concentration (IC50) on KRas G12D [2] came to 0.6 nM; in test [3], 12 nM.
